{"source": "patent US10329317B2", "about": "“Quinoline derivative for use in the treatment and prevention of viral infections” (ABIVAX, priority 2015, dated 2019)", "key": {"[1]": {"experiment": "Solubility compared with Compound 2 (statement only)", "type": "physicochemical"}, "HIV-1 strain YU2": {"test_system": "HIV-1 strain YU2", "experiment": "HIV-1 production (p24 ELISA) in infected monocyte derived macrophages", "type": "cell-based", "protocol": "HIV-1 strain YU2 was used to infect monocyte derived-macrophages from three different donors (donors 349, 350 and 351; respectively FIGS. 2A, 2B, and 2C panel) in the presence of increasing concentrations of the (glucuronidated) Compound 1, at 1.5 μM, 10 μM and 30 μM. The viral capsid protein p24 antigen was quantitated using standard ELISA protocol (expressed in pg/mL in y-axis). R-10 corresponds to untreated cells. […] To generate monocyte derived macrophages (MDMs), monocytes were isolated using CD14 microbeads (catalog no. 130-050-201; Miltenyi) and cultured in X-VIVO10 medium (Lonza) supplemented with GM-CSF 1000 U/ml and M-CSF 100 ng/ml for 6 days. Monocytes were seeded at a cell count of 50′000 cells per well in a 96 well plate. After 6 days medium was replaced with X-VIVO10 w/o Cytokines. After 2 days Macrophages were treated with Compound (1) o/n and next day infected with Yu-2 virus for 6 hrs, washed with PBS and cultured in medium containing the compounds for 12 days. Supernatant for p24 Elisa was collected 2 times a week. Cells were treated with 1.5 μM up to 30 μM and p24 antigen levels were monitored in culture supernatant over a 12 day period (R-10 corresponds to untreated cells) (FIG. 2)."}, "[2]": {"experiment": "First-in-man PK: compound (1) plasma levels after single oral ascending dose of compound (2)", "type": "in vivo, human", "details": "for AUC(0-t) / AUC(0-inf) / Cmax / half-life / Tmax: male, human, plasma; for AUC(0-t) / AUC(0-inf) / Cmax / half-life: po; for Tmax: read-out: tmax, median", "method": "The present document details the pharmacokinetic (PK) results obtained in a first-in-man study with compound (2) consisting in a single oral ascending dose in healthy male subjects. Four (4) dose levels were investigated (50, 100, 150, and 200 mg).\nAt each dose level, 6 subjects were included and received a single oral dose of compound (2) so that a total of 24 subjects participated to the study and completed it. No study deviation was identified at the time of the PK analysis and thus, all subjects were included in the PK analysis.\nIn this study, plasma levels of compound (1) were measured.\nPK blood sampling was initially defined up to 48 h post-dose.\nBlood samples for assessment of compound (1) plasma levels are scheduled at the following time points: • Day 1 pre-dose, 0.33, 0.66, 1.00, 1.50, 2.00, 2.50, 3.00, 4.00, 6.00, 8.00, 10.00, and 12.00 h post-dose; • Day 2 24.00 and 36.00 h post-dose; • Day 3 48.00 h post-dose; • Day 10 240 h post-dose; • Day 24 576 h post-dose; • Day 45 1080 h post-dose.\nPlasma concentrations were processed throughout the PK software for PK data generation. The PK parameters were calculated by non-compartmental analysis (NCA), using Phoenix® WinNonlin® (Pharsight Corporation) running on a personal computer.\nFor the calculation of the PK parameters and characteristics the following rules were applied: • All the plasma concentrations validated provided to the pharmacokineticist were used for the PK analysis. • The actual blood sampling time points related to the preceding administration was used. • At time points in the lag-time between time zero and the first concentration equal or above limit of quantification (LOQ), concentrations below LOQ were set to zero (0). Concentrations below limit of quantification (BLOQ) between 2 concentrations equal or above LOQ were considered as missing data. Trailing concentrations BLOQ were used in calculations. • If pre-dose concentration was missing, it was arbitrary set to zero (0) assuming that expected results would have been BLOQ.\nFor each subject receiving the active treatment in each cohort, the following PK parameters of compound (1) were to be derived:\nCmax The observed maximum concentration measured in plasma was obtained directly from the concentration-time data.\ntmax The time at which Cmax was apparent, identified by inspection of the plasma drug concentration vs. time data by Phoenix® WinNonlin®.\nAUC0-t The area under the concentration-time curve from time zero (pre-dose) to the time of last quantifiable concentration was calculated using a linear trapezoidal method.\nke The terminal plasma elimination rate-constant was estimated from log-linear regression analysis of the terminal phase of the plasma concentration-time profile. The number of points included in the terminal phase was determined by visual inspection of the semi-log plots of the plasma concentration-time profiles (at least 3). AUC0-∞ The AUC from time 0 to infinity was calculated as AUC0-∞=AUC0-t+AUCt-∞, where AUC0-t is the area under the concentration-time curve from time zero (pre-dose) to the time of last quantifiable concentration calculated using a […] trapezoidal method and AUCt-∞=Ct/ke, where Ct is the measured concentration at time of the last quantifiable concentration t. The extrapolated part of AUC0-∞ must be <20% for the value to be considered as reliable. t1/2 The apparent terminal elimination half-life was calculated as ln 2/ke, where ke is the elimination rate constant during the terminal phase determined by the log-linear regression obtained on at least the 3 last quantifiable concentrations and using actual blood sampling times. The correlation coefficient for the goodness of the fit of the regression line through the data points must be 0.8500 or higher, for the value to be considered reliable."}}, "note": "Like-named read-outs stand apart in the source and are kept apart here."}
{"smiles": "O=C(O)[C@H]1O[C@@H](N(c2ccc(OC(F)(F)F)cc2)c2ccc3cccc(Cl)c3n2)[C@H](O)[C@@H](O)[C@@H]1O", "note": "[Compound 1, N-β-glucuronide of 8-chloro-N-(4-(trifluoromethoxy)phenyl)quinolin-2-amine]", "values": [{"measurement": "solubility relative to Compound 2", "setting": "[1]", "value": "more soluble"}, {"measurement": "inhibition at 30 µM", "setting": "HIV-1 strain YU2; Human immunodeficiency virus 1, Primary macrophage, 288 h, primary macrophages, 30 μM, 12 day period, read-out: inhibition of virus replication (p24 antigen in culture supernatant)", "value": "≤ 60", "unit": "%"}, {"measurement": "toxicity", "setting": "HIV-1 strain YU2; macrophages, 1.5 μM up to 30 μM", "value": "low toxicity"}, {"measurement": "compound (1) plasma concentrations versus parent drug", "setting": "[2]; after single oral compound (2), regardless of the dose", "value": "markedly higher"}, {"measurement": "AUC(0-t)", "setting": "[2]; 50 mg, 50 mg compound (2) single oral, N=6, read-out: AUC0-t, GM (geometric mean)", "value": 196, "unit": "µg·h/mL"}, {"measurement": "AUC(0-t)", "setting": "[2]; 50 mg, 50 mg compound (2) single oral, N=6, read-out: AUC0-t, Mean", "value": 209, "unit": "µg·h/mL"}, {"measurement": "AUC(0-inf)", "setting": "[2]; 50 mg, 50 mg compound (2) single oral, N=6, read-out: AUC0-∞, GM (geometric mean)", "value": 198, "unit": "µg·h/mL"}, {"measurement": "AUC(0-inf)", "setting": "[2]; 50 mg, 50 mg compound (2) single oral, N=6, read-out: AUC0-∞, Mean", "value": 212, "unit": "µg·h/mL"}, {"measurement": "Cmax", "setting": "[2]; 50 mg, 50 mg compound (2) single oral, N=6, read-out: Cmax, GM (geometric mean)", "value": 2540, "unit": "ng/mL"}, {"measurement": "Cmax", "setting": "[2]; 50 mg, 50 mg compound (2) single oral, N=6, read-out: Cmax, Mean", "value": 2630, "unit": "ng/mL"}, {"measurement": "half-life", "setting": "[2]; 50 mg, 50 mg compound (2) single oral, N=6, read-out: t1/2, GM (geometric mean) (converted)", "value": 95.7, "unit": "h"}, {"measurement": "half-life", "setting": "[2]; 50 mg, 50 mg compound (2) single oral, N=6, read-out: t1/2, Mean (converted)", "value": 97.3, "unit": "h"}, {"measurement": "AUC(0-t)", "setting": "[2]; 100 mg, 100 mg compound (2) single oral, N=6, read-out: AUC0-t, GM (geometric mean)", "value": 468, "unit": "µg·h/mL"}, {"measurement": "AUC(0-t)", "setting": "[2]; 100 mg, 100 mg compound (2) single oral, N=6, read-out: AUC0-t, Mean", "value": 499, "unit": "µg·h/mL"}, {"measurement": "AUC(0-inf)", "setting": "[2]; 100 mg, 100 mg compound (2) single oral, N=6, read-out: AUC0-∞, GM (geometric mean)", "value": 476, "unit": "µg·h/mL"}, {"measurement": "AUC(0-inf)", "setting": "[2]; 100 mg, 100 mg compound (2) single oral, N=6, read-out: AUC0-∞, Mean", "value": 505, "unit": "µg·h/mL"}, {"measurement": "Cmax", "setting": "[2]; 100 mg, 100 mg compound (2) single oral, N=6, read-out: Cmax, GM (geometric mean)", "value": 5400, "unit": "ng/mL"}, {"measurement": "Cmax", "setting": "[2]; 100 mg, 100 mg compound (2) single oral, N=6, read-out: Cmax, Mean", "value": 5720, "unit": "ng/mL"}, {"measurement": "half-life", "setting": "[2]; 100 mg, 100 mg compound (2) single oral, N=6, read-out: t1/2, GM (geometric mean) (converted)", "value": 111, "unit": "h"}, {"measurement": "half-life", "setting": "[2]; 100 mg, 100 mg compound (2) single oral, N=6, read-out: t1/2, Mean (converted)", "value": 111, "unit": "h"}, {"measurement": "AUC(0-t)", "setting": "[2]; 150 mg, 150 mg compound (2) single oral, N=6, read-out: AUC0-t, GM (geometric mean)", "value": 560, "unit": "µg·h/mL"}, {"measurement": "AUC(0-t)", "setting": "[2]; 150 mg, 150 mg compound (2) single oral, N=6, read-out: AUC0-t, Mean", "value": 659, "unit": "µg·h/mL"}, {"measurement": "AUC(0-inf)", "setting": "[2]; 150 mg, 150 mg compound (2) single oral, N=6, read-out: AUC0-∞, GM (geometric mean)", "value": 563, "unit": "µg·h/mL"}, {"measurement": "AUC(0-inf)", "setting": "[2]; 150 mg, 150 mg compound (2) single oral, N=6, read-out: AUC0-∞, Mean", "value": 664, "unit": "µg·h/mL"}, {"measurement": "Cmax", "setting": "[2]; 150 mg, 150 mg compound (2) single oral, N=6, read-out: Cmax, GM (geometric mean)", "value": 8270, "unit": "ng/mL"}, {"measurement": "Cmax", "setting": "[2]; 150 mg, 150 mg compound (2) single oral, N=6, read-out: Cmax, Mean", "value": 9240, "unit": "ng/mL"}, {"measurement": "half-life", "setting": "[2]; 150 mg, 150 mg compound (2) single oral, N=6, read-out: t1/2, GM (geometric mean) (converted)", "value": 95.7, "unit": "h"}, {"measurement": "half-life", "setting": "[2]; 150 mg, 150 mg compound (2) single oral, N=6, read-out: t1/2, Mean (converted)", "value": 99.2, "unit": "h"}, {"measurement": "AUC(0-t)", "setting": "[2]; 200 mg, 200 mg compound (2) single oral, N=6, read-out: AUC0-t, GM (geometric mean)", "value": 436, "unit": "µg·h/mL"}, {"measurement": "AUC(0-t)", "setting": "[2]; 200 mg, 200 mg compound (2) single oral, N=6, read-out: AUC0-t, Mean", "value": 559, "unit": "µg·h/mL"}, {"measurement": "AUC(0-inf)", "setting": "[2]; 200 mg, 200 mg compound (2) single oral, N=6, read-out: AUC0-∞, GM (geometric mean)", "value": 438, "unit": "µg·h/mL"}, {"measurement": "AUC(0-inf)", "setting": "[2]; 200 mg, 200 mg compound (2) single oral, N=6, read-out: AUC0-∞, Mean", "value": 560, "unit": "µg·h/mL"}, {"measurement": "Cmax", "setting": "[2]; 200 mg, 200 mg compound (2) single oral, N=6, read-out: Cmax, GM (geometric mean)", "value": 5900, "unit": "ng/mL"}, {"measurement": "Cmax", "setting": "[2]; 200 mg, 200 mg compound (2) single oral, N=6, read-out: Cmax, Mean", "value": 7910, "unit": "ng/mL"}, {"measurement": "half-life", "setting": "[2]; 200 mg, 200 mg compound (2) single oral, N=6, read-out: t1/2, GM (geometric mean) (converted)", "value": 87.8, "unit": "h"}, {"measurement": "half-life", "setting": "[2]; 200 mg, 200 mg compound (2) single oral, N=6, read-out: t1/2, Mean (converted)", "value": 89.5, "unit": "h"}, {"measurement": "half-life", "setting": "[2]; healthy male subjects, single oral 50 to 200 mg compound (2), read-out: elimination half life (t1/2) (converted)", "value": "~100", "unit": "h"}, {"measurement": "Tmax", "setting": "[2]; 50 mg compound (2) single oral, N=6", "value": 4, "unit": "h"}, {"measurement": "Tmax", "setting": "[2]; 100 mg compound (2) single oral, N=6", "value": 4, "unit": "h"}, {"measurement": "Tmax", "setting": "[2]; 150 mg compound (2) single oral, N=6", "value": 4, "unit": "h"}, {"measurement": "Tmax", "setting": "[2]; 200 mg compound (2) single oral, N=6", "value": 6, "unit": "h"}, {"measurement": "time of first quantifiable compound (1) concentration", "setting": "[2]; post-dose, 20 subjects out of 24", "value": "~40", "unit": "min"}]}
